# In publication PMC5617480 (Oncotarget, 2017):
# Experiments:
# Assay in all cases: Cytotoxicity assay (MTT assay)
# Format in all cases: cell-based, human
# A549 cells = settings: for Inhibitory rates (%): A549, 20 μM
# Description: (§1) To evaluate the cytotoxicity of chiral platinum(II) complexes, HeLa, BEL-7402, MGC80-3, BEL-7404, A549, Hep-G2 and HL-7702 cells (normal cells) were treated with varying concentrations of complexes 1–6 and cisplatin (positive control, cisplatin was dissolved at a concentration of 1.0 mM in 0.154 M NaCl) for 24 h and 48 h. The cell viability of each experimental group was examined by MTT assays. […] [61, 62]. […] Therefore, complex 6 (10 μM) was selected for cell apoptosis analysis by flow-cytometry, RT-PCR, caspase-3/9 activation assays, western blot and transfection assays in BEL-7404 cells for 24 h. In addition, this observed difference in in vitro cytotoxicity between the three complexes 4–6 could be due to the influence of the chirality of the FOA ligand [68]. […]
# (§2) Materials 100 U/mL penicillin and 100 μg/mL streptomycin in 25 cm2 culture flasks at 37 °C humidified atmosphere with Tris, RNase A, and propidium iodide (PI) were 5% CO2. All cells to be tested in the following assays have purchased from Sigma. The antibody of mutp53, a passage number of 3-6. […]
# (§3) were purchased from Abcam. Unless otherwise stated, BEL-7404, A549, and Hep-G2 cancer-cell lines and HL-spectroscopic titration experiments were carried out in 7702 normal cells) per well were seeded in triplicate in TBS (10 mM pH7.35 Tris-HCl, containing 100 mM KCl). 96-well plates and incubated for 24 h at 37 °C and 5.0% The total RNA isolation kit and the two-step RT-PCR kit CO2/95.0% air. Then graded amounts of compound were purchased from TIANGEN. DNA oligomers (highly added to the wells in 10.0 μL of FBS free culture medium polymerized stored at 4 °C; long-term storage at −20 °C) and the plates were incubated in a 5% CO2 humidified are listed in Supplementary Table 1 and were obtained from atmosphere for 24 h and 48 h. Six replica wells were used Shanghai Sangon Biological Engineering Technology & as controls. Each the cells were grew for 12.0 h before Services (Shanghai, China). All tumor cell lines (HeLa, treatment to reach 70.0% confluency and 20.0 μL of tested BEL-7402, MGC80-3, BEL-7404, A549, Hep-G2 cancer- various concentrations of compounds were added to each cell lines and normal liver cell line HL-7702) were obtained well. The final concentration of the tested complexes from the Shanghai Institute for Biological Science (China). or compounds were kept at 1.25, 2.5, 5, 10, 20 μM, Stock solutions of all the compounds (2.0 mM) were made respectively. After 24 h or 48 h of culture, 0.1 mg of in DMSO, and further dilutions to working concentrations MTT (in 20 μL of PBS) was added to each well, and cells were made with corresponding buffer. were incubated at 37 °C for 6 h. The formed formazan crystals were then dissolved in 100 μL of DMSO and the Instrumentation absorbance was read by enzyme labeling instrument with Infrared spectra were obtained on a Perkine Elmer 490/630 nm double wavelength measurement. The final FT-IR Spectrometer. Elemental analyses (C, H, N) IC50 values were calculated by the Bliss method (n = 5). were carried out on a Perkin Elmer Series II CHNS/O All tests were repeated in at least three independent trials. […]
# (§4) 10.0 min. The cell pellet obtained was dissolved in 1.0 M
# (§5) The region between 200 and 400 nm was scanned for each NaOH (1.0 mL) and diluted with 2.0% (v/v) HNO3 (5.0 sample. MTT assay was performed on M1000 microplate mL) for determining whole cell Pt content. Another set reader (Tecan Trading Co. Ltd, Shanghai, China). Cell was treated similarly, nuclear proteins, nuclear fraction, cycle and apoptosis analysis was recorded on FACS Aria cytoplasmic protein, membrane proteins and other fraction II Flow Cytometer (BD Biocsiences, San Jose, USA). were isolated as described by Chen and Schreiber et al. And the each final solution was made up to 5.0 mL
# (§6) Cytotoxicity assay (MTT assay) using 2.0% (v/v) HNO3. The amount of Pt taken up by the cells was determined by ICP-MS. The instrument was […]
# BEL-7402 cells = settings: for Inhibitory rates (%): BEL-7402, 20 μM
# Description: as §1, §2, §3, §4, §5, §6
# BEL-7404 cells = settings: for Inhibitory rates (%): BEL-7404, 20 μM
# Description: as §1, §2, §3, §4, §5, §6
# HeLa cells = settings: for Inhibitory rates (%): 20 μM
# Description: as §1, §2, §3, §4, §5, §6
# Hep-G2 cells = settings: for Inhibitory rates (%): Hep-G2, 20 μM
# Description: as §1, §2, §3, §4, §5, §6
# MGC80-3 cells = settings: for Inhibitory rates (%): MGC80-3, 20 μM
# Description: as §1, §2, §3, §4, §5, §6
# HL-7702 normal cells = settings: for Inhibitory rates (%): HL-7702, 20 μM
# Description: To evaluate the cytotoxicity of chiral platinum(II) complexes, HeLa, BEL-7402, MGC80-3, BEL-7404, A549, Hep-G2 and HL-7702 cells (normal cells) were treated with varying concentrations of complexes 1–6 and cisplatin (positive control, cisplatin was dissolved at a concentration of 1.0 mM in 0.154 M NaCl) for 24 h and 48 h. The cell viability of each experimental group was examined by MTT assays. […] [61, 62].
# as §2, §3
Substance,Inhibitory rates (%) (A549 cells; 24 h),Inhibitory rates (%) (A549 cells; 48 h),"IC50 (A549 cells; A549, 24 h) [µM]","IC50 (A549 cells; A549, 48 h) [µM]",Inhibitory rates (%) (BEL-7402 cells; 24 h),Inhibitory rates (%) (BEL-7402 cells; 48 h),"IC50 (BEL-7402 cells; BEL-7402, 24 h) [µM]","IC50 (BEL-7402 cells; BEL-7402, 48 h) [µM]",Inhibitory rates (%) (BEL-7404 cells; 24 h),Inhibitory rates (%) (BEL-7404 cells; 48 h),"IC50 (BEL-7404 cells; BEL-7404, 24 h) [µM]","IC50 (BEL-7404 cells; BEL-7404, 48 h) [µM]",Inhibitory rates (%) (HeLa cells; 24 h),Inhibitory rates (%) (HeLa cells; 48 h),IC50 (HeLa cells; 24 h) [µM],IC50 (HeLa cells; 48 h) [µM],Inhibitory rates (%) (Hep-G2 cells; 24 h),Inhibitory rates (%) (Hep-G2 cells; 48 h),"IC50 (Hep-G2 cells; Hep-G2, 24 h) [µM]","IC50 (Hep-G2 cells; Hep-G2, 48 h) [µM]",also measured
cis-[PtCl2(R/S-(±)-FOA)] [complex 4],57.6 ± 0.6,77.8 ± 0.1,18.6 ± 0.5,9.1 ± 0.6,41.2 ± 0.6,48.6 ± 1.3,32.5 ± 0.5,20.7 ± 0.9,67.3 ± 1.3,80.0 ± 4.3,12.5 ± 1.1,8.7 ± 0.1,18.5 ± 0.7,24.1 ± 2.1,90.5 ± 0.7,38.1 ± 1.5,20.8 ± 0.3,27.6 ± 1.1,84.6 ± 0.4,29.1 ± 0.8,"Inhibitory rates (%) (MGC80-3 cells; 24 h): 22.0 ± 1.9%; Inhibitory rates (%) (MGC80-3 cells; 48 h): 24.9 ± 1.4%; IC50 (MGC80-3 cells; MGC80-3, 24 h): 80.6 ± 2 µM; IC50 (MGC80-3 cells; MGC80-3, 48 h): 32.1 ± 1.8 µM; selectivity index factor, IC50 (normal HL-7702 cells)/IC50 (BEL-7404 tumor cells) (HL-7702 normal cells; 24 h): 6.8; selectivity index factor, IC50 (normal HL-7702 cells)/IC50 (BEL-7404 tumor cells) (HL-7702 normal cells; 48 h): 6.7; Inhibitory rates (%) (HL-7702 normal cells; 24 h): 28.3 ± 1.7%; Inhibitory rates (%) (HL-7702 normal cells; 48 h): 31.6 ± 2.4%; IC50 (HL-7702 normal cells; HL-7702, 24 h): 85.4 ± 1.5 µM; IC50 (HL-7702 normal cells; HL-7702, 48 h): 58.5 ± 5.5 µM"
cis-[PtCl2(S-(–)-FOA)] [complex 6],65.3 ± 1.3,84.7 ± 2.2,15.3 ± 1.2,8.2 ± 0.5,50.5 ± 1.6,58.4 ± 2.1,20.6 ± 1.5,15.3 ± 2.2,70.9 ± 0.7,81.3 ± 0.4,10.1 ± 0.6,7.9 ± 0.3,21.1 ± 0.9,25.1 ± 1.4,78.2 ± 0.9,31.8 ± 0.7,30.2 ± 1.6,39.3 ± 2.2,50.1 ± 1.8,17.7 ± 1.2,"Inhibitory rates (%) (MGC80-3 cells; 24 h): 25.1 ± 0.5%; Inhibitory rates (%) (MGC80-3 cells; 48 h): 26.5 ± 1.1%; IC50 (MGC80-3 cells; MGC80-3, 24 h): 72.8 ± 0.4 µM; IC50 (MGC80-3 cells; MGC80-3, 48 h): 31.5 ± 1.7 µM; selectivity index factor, IC50 (normal HL-7702 cells)/IC50 (BEL-7404 tumor cells) (HL-7702 normal cells; 24 h): 11.8; selectivity index factor, IC50 (normal HL-7702 cells)/IC50 (BEL-7404 tumor cells) (HL-7702 normal cells; 48 h): 10.7; Inhibitory rates (%) (HL-7702 normal cells; 24 h): 20.7 ± 1.6%; Inhibitory rates (%) (HL-7702 normal cells; 48 h): 33.9 ± 2.2%; IC50 (HL-7702 normal cells; HL-7702, 24 h): 119 ± 1.5 µM; IC50 (HL-7702 normal cells; HL-7702, 48 h): 84.2 ± 1.2 µM"
